# Test results reported in patent US20100330604A1, “QUANTIFICATION OF CHANGES IN THE DEGREES OF ORDER OF CELLULAR AND VIRAL MEMBRANES AND APPLICATIONS TO DIAGNOSIS, TREATMENT AND DRUG SCREENING” (priority 2007, published 2010).
# Where two headings read alike, the source gives them in different places.
# What was measured:
# platelets [1] = test: Di-4-[…] fluorescence and Rf (675/575 nm) by flow cytometry on isolated platelets treated in vitro; assay type: cell-based
# platelets [2] = test: Spectral flow cytometry of di-4-[…] stained platelets stimulated by soluble agonists; assay type: cell-based
# platelets [3] = test: Di-4-ANEPPDHQ Rf by flow cytometry on platelets of hyperlipidemic patients before and after atorvastatin; assay type: in vivo, human; details: after 6-week atorvastatin 40 mg
# platelets [4] = details: mean+/-SD
# platelets [5] = details: all three patient groups; FIG. 19 panel B
# platelets [6] = test: Shear Induced Platelet activation (SIPA): high Rf platelet subpopulation; assay type: cell-based
# cells = test: Kinetics of apoptosis after addition of staurosoprine (di-4-[…] staining, flow cytometry); assay type: cell-based
# Description: Cells are detected, identified and segregated according to their size using forward scatter (FSC) and granularity (SSC). A total of 5000-10000 particles are typically analyzed. The excitation light is provided by a 488 nm laser, but could be achieved with lasers having wavelengths between 400 and 500 nm, among other possibilities. The emission fluorescence associated with liquid ordered domains is acquired between 575+/−25 nm, but the bandwidth could be narrower or wider, for example contained between 500 and 600 nm. The emission fluorescence associated with liquid disordered domains is acquired between 675+/−25 nm, but the bandwidth could be narrower or wider, contained for example between 650 and 750 nm.
# Amplifications and gains associated with both fluorescences are adjusted on calibrated fluorescent beads or on a control cell population to obtain a ratio of fluorescence and to allow increases or decreases of the fluorescences and of the ratio. The ratio of fluorescence (Rf) is determined for each particle analysed by computing the ratio between the fluorescence intensity at 675 nm and the fluorescence intensity at 575 nm. By plotting FSC or SSC as a function of Rf for all particles on a logarithmic scale graph, the percentage of apoptotic cells can be determined as being the percentage of cells in the studied population having a Rf higher than a control population.
# P-selectin = test: Expression of platelet activation marker P-selectin on washed platelets; assay type: cell-based; details: 10 mM, 30 minutes, room temperature; after 10 μM TRAP or 50 μM A23187
# platelets [7] = test: Di-4-[…] Rf by confocal fluorescent microscopy on platelets; assay type: cell-based; details: 10 mM, 37° C., 30 min; four donors; p=0.045
# Procedure: Referring to FIG. 3, fluorescence intensities were measured by confocal fluorescent microscopy and flow cytometry on control platelets, cholesterol depleted platelets (10 mM Methyl-β-cyclodextrin, 37° C., 30 min) and cholesterol enriched platelets (2 mM Cholesterol-MCD complex, 37° C., 30 min).
# A META confocal fluorescence microscope system (Zeiss, Toronto) was used to measure the intensities of fluorescence between 534 to 599 nm and between 650 to 684 nm allowing calculating the fluorescence ratio (Rf) prepared according as described hereinabove. Consistently with previous published data on neutrophils (Jin L et al. Biophys J; 2006), the Rf was higher after depletion compared to control platelets (measures on at least 5 platelets of four different donors; p=0.045) (Panel A).
# [8] = system: activated GpIIbIIIa receptors; test: Activation of the activated GpIIbIIIa receptors on washed platelets; assay type: cell-based; details: 10 mM, 30 minutes, room temperature; after 10 μM TRAP or 50 μM A23187
# [9] = 10 mM, room temperature, during incubation, N=3
molecule,measurement,setting,value
CNc1ccc2oc(C[C@H]3O[C@@]4(CC[C@H]3C)O[C@H]([C@H](C)C(=O)c3ccc[nH]3)[C@H](C)C[C@H]4C)nc2c1C(=O)O [A23187],Rf vs. non activated platelets incubated with TBS,"platelets [1]; agonist: 10 μM TRAP or 50 μM A23187, p<0.05",significantly increased
same,fluorescence intensities between 515 and 600 nm (more ordered phases) upon activation,platelets [2],decrease
CC(C)c1c(C(=O)Nc2ccccc2)c(-c2ccccc2)c(-c2ccc(F)cc2)n1CC[C@@H](O)C[C@@H](O)CC(=O)O [atorvastatin],Rf (MLO in platelets),"platelets [3]; 20 hyperlipidemic patients, compared value 9.2+/-0.1, p=0.01",8.8+/−0.1
same,effects of the cholesterol depletion on the MLO (Rf),"platelets [3]; compared value 12.8+/-0.5, p=0.09",11.7+/−0.2
COC(=O)[C@H](c1ccccc1Cl)N1CCc2sccc2C1 [clopidogrel],ratio of fluorescence (Rf) after administration of clopidogrel,"platelets [4]; Group A: clopidogrel 300 mg the day before + 75 mg the morning of the procedure, before 8.80+/-0.2, p<0.001",8.68+/−0.22
same,ratio of fluorescence (Rf) after administration of clopidogrel,"platelets [4]; Group B: clopidogrel 600 mg the morning of (2 hours before) the procedure, before 8.90+/-0.24, p=0.006",8.77+/−0.27
same,ratio of fluorescence (Rf) after administration of clopidogrel,"platelets [4]; Group C: clopidogrel 600 mg the day before and 600 mg the morning of the procedure, before 8.69+/-0.29, p=0.88",8.69+/−0.21
same,"platelet sub-population (Population 2), about 0.46% of platelets before treatment",platelets [5],inhibited
C=C1[C@@H](C)[C@H]2[C@H](Cc3ccccc3)NC(=O)[C@]23[C@H](OC(C)=O)/C=C/[C@@](C)(O)C(=O)[C@@H](C)C/C=C/[C@H]3[C@@H]1O [cytochalasin D],generation of the high Rf platelet population during the shear treatment,platelets [6],abrogated
CCCCC[C@@H](O)[C@H]1C(=O)O[C@H](C)[C@@H](O)/C=C/C=C/C=C/C=C/C=C(\C)[C@@H](O)C[C@H](O)C[C@H](O)C[C@H](O)C[C@H](O)C[C@H](O)C[C@@H]1O [filipin],Rf measured by flow cytometry,"platelets [1]; platelets, 30 minutes at 37° C., different concentrations, N=5",dose-dependency
CN[C@@H]1C[C@H]2O[C@@](C)([C@@H]1OC)n1c3ccccc3c3c4c(c5c6ccccc6n2c5c31)C(=O)NC4 [staurosoprine],total proportion of intact cells after induction of apoptosis,cells; FIG. 17 panel G,decreases regularly
same,time at which the concentration in microparticles is maximal,cells; FIG. 17 panel H,24 h
Methyl-β-cyclodextrin,fluorescence intensity (575 and 675 nm) versus control undepleted platelets,"platelets [1]; 10 mM, 37° C., 30 min, 10 μM di-4-ANEPPDHQ",shifted to lower values
same,Rf vs. control platelets,"platelets [1]; 10 mM, 30 minutes, room temperature, p<0.05 to p<0.001",increased
same,time of cholesterol depletion after which the fluorescence ratio measurement is substantially stable,"platelets [1]; 10 mM, room temperature",30 min
same,fluorescence associated to the more ordered membrane (575 nm),platelets [1]; [9],decreased
same,fluorescence emitted at 675 nm,platelets [1]; [9],remained stable
same,ratio of fluorescence (Rf) during the incubation,"platelets [1]; 10 mM, room temperature, N=3",increased
same,fluorescence ratio (Rf) calculated from flow cytometry data,"platelets [1]; cholesterol depletion 10 mM, 37° C., 30 min, N=5",increased
same,expression of platelet activation marker P-selectin,P-selectin,decreased
same,Rf by confocal microscopy compared to control platelets,platelets [7],higher
same,activation of the activated GpIIbIIIa receptors,[8],decreased
thrombin,fluorescence at wavelengths larger than 660 nm compared to controls,"platelets [2]; 0.5 U/mL, 30 minutes at 37 C",increased significantly
same,fluorescence between 530 and 585 nm compared to controls,"platelets [2]; 0.5 U/mL, 30 minutes at 37 C",decreased significantly
same,fluorescence intensities between 515 and 600 nm (more ordered phases) upon activation,"platelets [2]; Thrombin 0.5 U/ml, A23187 10 μM, Thrombin 0.5 U/ml/Convulxin 500 ng/ml, FIG. 15",decrease
